System: Pneumocystis carinii
Assay: Treatment of Pneumocystis carinii pneumonia in Sprague-Dawley rats (extent of disease by histologic score)
Assay type: in vivo, male Sprague-Dawley rats
Settings: for Extent of Disease by Histologic Score: number of animals with score 0.5 / Extent of disease by histologic score (combined): number of animals in scoring group 0.5: 0.5 = <10 cysts found per 2 sections; for Extent of disease by histologic score (combined): number of animals in scoring group 0.5 / Extent of disease by histologic score (combined): number of animals in scoring group 1 / Extent of disease by histologic score (combined): number of animals in scoring group 2 / Extent of disease by histologic score (combined): number of animals in scoring group 3 / Extent of disease by histologic score (combined): number of animals in scoring group 4: Table XII composite; for Extent of disease by histologic score (combined): number of animals in scoring group 2: 5-10% of lung involved
Procedure: Induction and Treatment Of Pneumocystis Carinii in Sprague-Dawley Rats
Male Sprague-Dawley rats, barrier raised, non-certified virus free, weighing 150-200g were obtained from Hilltop Laboratories and housed individually. Animals were begun on a low (8%) protein diet (ICN Biomedicals, Cincinnati, OH) and drinking water containing tetracycline (0.5 mg/ml) and dexamethasone (1.0 μg/ml) immediately upon arrival. This treatment was given for the next 8 weeks, monitoring fluid intake daily and weighing animals weekly. Dilutions of the drinking solution were made when animals consumed too much fluid so as to prevent cortisone poisoning. At the beginning of the sixth week, animals were divided into groups of 8 animals each and the test compounds were administered daily by i.v. injection at a dose of 10 mg/kg, unless otherwise noted, for the next 14 days.
Animals were sacrificed at the end of the eighth week by chloroform inhalation and the left lung was removed aseptically and placed in sterile Hank's balanced salts solution without calcium or magnesium (HBSS-) for the ground tissue procedure. The right lung was inflated in situ with 10% […] and removed for histologic examination GMS staining. […]

[1] = 10 mg/kg unless otherwise noted
[2] = 10 mg/kg i.v. daily, 14 days, 1 = scattered cysts, <5% of lung involved
[3] = 10 mg/kg i.v. daily, 14 days, 2 = scattered cysts, 5-10% lung involved or small foci of infection
[4] = 10 mg/kg i.v. daily, 14 days, 3 = scattered cysts, 10-50% of lung involved with some intense areas of infection
[5] = 10 mg/kg i.v. daily, 14 days, 4 = >50% of lung involved with many intense areas of focal infection
[6] = 10 mg/kg, 1 = scattered cysts, <5% of lung involved
[7] = 10 mg/kg, 3 = scattered cysts, 10-50% of lung involved
[8] = 10 mg/kg, 4 = >50% of lung involved

SMILES | Efficacy in treating PCP compared with pentamidine [1] | Extent of Disease by Histologic Score: number of animals with score 0.5 (10 mg/kg i.v. daily, 14 days) | Extent of Disease by Histologic Score: number of animals with score 1 [2] | Extent of Disease by Histologic Score: number of animals with score 2 [3] | Extent of Disease by Histologic Score: number of animals with score 3 [4] | Extent of Disease by Histologic Score: number of animals with score 4 [5] | Extent of disease by histologic score (combined): number of animals in scoring group 0.5 (10 mg/kg) | Extent of disease by histologic score (combined): number of animals in scoring group 1 [6] | Extent of disease by histologic score (combined): number of animals in scoring group 2 (10 mg/kg, 2 = scattered cysts) | Extent of disease by histologic score (combined): number of animals in scoring group 3 [7] | Extent of disease by histologic score (combined): number of animals in scoring group 4 [8] | other results
COc1cc(C(=N)N)ccc1OCCCCCOc1ccc(C(=N)N)cc1OC [Example 15] | improved performance in treating pcp | – | – | – | – | – | – | – | – | – | – | Extent of Disease by Histologic Score: number of animals with score 0.5 (5 mg/kg i.v. daily, 14 days): 0 animals; Extent of Disease by Histologic Score: number of animals with score 1 (5 mg/kg i.v. daily, 14 days, 1 = scattered cysts, <5% of lung involved): 3 animals; Extent of Disease by Histologic Score: number of animals with score 2 (5 mg/kg i.v. daily, 14 days, 2 = scattered cysts, 5-10% lung involved or small foci of infection): 4 animals; Extent of Disease by Histologic Score: number of animals with score 3 (5 mg/kg i.v. daily, 14 days, 3 = scattered cysts, 10-50% of lung involved with some intense areas of infection): 1 animals; Extent of Disease by Histologic Score: number of animals with score 4 (5 mg/kg i.v. daily, 14 days, 4 = >50% of lung involved with many intense areas of focal infection): 0 animals; Extent of Disease by Histologic Score: number of animals with score 0.5 (Table III, Example 15 (Table XII footnote d: 2.5 mg/kg)): 2 animals; Extent of Disease by Histologic Score: number of animals with score 1 (Table III, Example 15 (Table XII footnote d: 2.5 mg/kg), 1 = <5% of lung involved): 1 animals; Extent of Disease by Histologic Score: number of animals with score 2 (Table III, Example 15 (Table XII footnote d: 2.5 mg/kg), 2 = 5-10% lung involved): 3 animals; Extent of Disease by Histologic Score: number of animals with score 3 (Table III, Example 15 (Table XII footnote d: 2.5 mg/kg), 3 = 10-50% of lung involved): 0 animals; Extent of Disease by Histologic Score: number of animals with score 4 (Table III, Example 15 (Table XII footnote d: 2.5 mg/kg), 4 = >50% of lung involved): 0 animals; Extent of disease by histologic score (combined): number of animals in scoring group 0.5 (tested at 2.5 mg/kg): 2 animals; Extent of disease by histologic score (combined): number of animals in scoring group 1 (tested at 2.5 mg/kg, 1 = scattered cysts, <5% of lung involved): 4 animals; Extent of disease by histologic score (combined): number of animals in scoring group 2 (tested at 2.5 mg/kg, 2 = scattered cysts): 7 animals; Extent of disease by histologic score (combined): number of animals in scoring group 3 (tested at 2.5 mg/kg, 3 = scattered cysts, 10-50% of lung involved): 1 animals; Extent of disease by histologic score (combined): number of animals in scoring group 4 (tested at 2.5 mg/kg, 4 = >50% of lung involved): 0 animals; Efficacy in treating PCP compared with control (compound at 5 mg/kg): significantly better, at one half the dose, than the control
N=C(N)c1ccc(NCCCCCNc2ccc(C(=N)N)cc2N)c(N)c1 [Example 19] | not as good as pentamidine in controlling pcp | 0 animals | 2 animals | 4 animals | 2 animals | 0 animals | 3 animals | 2 animals | 3 animals | 0 animals | 0 animals | Efficacy in treating PCP compared with control [1]: better than the control
N=C(N)c1ccc(OCCCCCCOc2ccc(C(=N)N)cc2)cc1 [Example 20, hexamidine, reference compound] | improved performance in treating pcp | 3 animals | 3 animals | 1 animals | 0 animals | 0 animals | 3 animals | 3 animals | 1 animals | 0 animals | 0 animals | –
N=C(N)c1ccc(OCCCCCCOc2ccc(C(=N)N)cc2[N+](=O)[O-])c([N+](=O)[O-])c1 [Example 21] | – | – | – | – | – | – | – | – | – | – | – | Extent of Disease by Histologic Score: number of animals with score 0.5 (1.25 mg/kg (dose from Table XII footnote e)): 4 animals; Extent of Disease by Histologic Score: number of animals with score 1 (1.25 mg/kg (dose from Table XII footnote e), 1 = scattered cysts, <5% of lung involved): 1 animals; Extent of Disease by Histologic Score: number of animals with score 2 (1.25 mg/kg (dose from Table XII footnote e), 2 = scattered cysts, 5-10% lung involved or small foci of infection): 1 animals; Extent of Disease by Histologic Score: number of animals with score 3 (1.25 mg/kg (dose from Table XII footnote e), 3 = scattered cysts, 10-50% of lung involved): 0 animals; Extent of Disease by Histologic Score: number of animals with score 4 (1.25 mg/kg (dose from Table XII footnote e), 4 = >50% of lung involved): 0 animals; Extent of disease by histologic score (combined): number of animals in scoring group 0.5 (tested at 1.25 mg/kg): 4 animals; Extent of disease by histologic score (combined): number of animals in scoring group 1 (tested at 1.25 mg/kg, 1 = scattered cysts, <5% of lung involved): 1 animals; Extent of disease by histologic score (combined): number of animals in scoring group 2 (tested at 1.25 mg/kg, 2 = scattered cysts): 1 animals; Extent of disease by histologic score (combined): number of animals in scoring group 3 (tested at 1.25 mg/kg, 3 = scattered cysts, 10-50% of lung involved): 0 animals; Extent of disease by histologic score (combined): number of animals in scoring group 4 (tested at 1.25 mg/kg, 4 = >50% of lung involved): 0 animals
N=C(N)c1ccc(NCCCCCCNc2ccc(C(=N)N)cc2N)c(N)c1 [Example 23] | – | 3 animals | 1 animals | 2 animals | 0 animals | 1 animals | 3 animals | 1 animals | 2 animals | 0 animals | 1 animals | –
N=C(N)c1cccc(OCCCOc2cccc(C(=N)N)c2)c1 [Example 26] | – | 2 animals | 1 animals | 4 animals | 1 animals | 0 animals | 2 animals | 1 animals | 4 animals | 1 animals | 0 animals | –
N=C(N)c1cccc(OCCCCOc2cccc(C(=N)N)c2)c1 [Example 27] | – | 2 animals | 1 animals | 1 animals | 3 animals | 0 animals | 2 animals | 1 animals | 1 animals | 3 animals | 0 animals | –
N=C(N)c1cccc(OCCCCCOc2cccc(C(=N)N)c2)c1 [Example 28] | – | – | – | – | – | – | 4 animals | 3 animals | 6 animals | 2 animals | 1 animals | –
N=C(N)c1cccc(OCCCCCCOc2cccc(C(=N)N)c2)c1 [Example 29] | – | 1 animals | 4 animals | 1 animals | 2 animals | 0 animals | 1 animals | 4 animals | 1 animals | 2 animals | 0 animals | –

Source: patent US4933347A, “Diamidines and bis(imidazolines) for the treatment of and prophylaxis against pneumocystis carinii pneumonia” (University of North Carolina at Chapel Hill, priority 1988, dated 1990)
